This is an account of results in patent US5234935A, “N-alkylated 1,4-dihydropyridine-dicarboxylic acid esters” (Bayer Aktiengesellschaft, priority 1990, dated 1993).

In data set [1] the test system is erythrocytes. In words: Filtration of calcium-laden erythrocytes through 5 μm pores. It is filed as cell-based. Particulars: Erythrocyte, 0.5 h; filtration through 5 μm sieve pores; sheared in normal buffer 30 min; read-out: ED50 improvement in the flexibility compared to damage to control. As for the experimental part: Test c) detects the filterability of calcium-laden erythrocytes through 5 μm pores (ED50, mol/l). In this test, the membrane flexibility plays a role under small force gradients.
Filtration of erythrocytes through 5 μm sieve pores is an established method for the determination of the deformability of erythrocytes. The cells are sheared in normal buffer for 30 min so that the calcium concentration increases intracellularly and the flexibility is reduced.

Data set [2] deals with leukocyte adhesion. The data set can be described thus: Leukocyte adhesion in hamster cheek pouch model. It counts as in vivo. The following applies: 0.1 mg/kg i.v.; for Leukocyte adhesion, Ischaemic, control = 100%: ischaemic (10 min circulation stop), small arterioles; for Leukocyte adhesion, Non-ischaemic, control = 100%: small venules. As for the experimental part: The microcirculation can be directly observed in the hamster cheek pouch model. Measured quantities are leukocyte adhesion and also vessel diameter and erythrocyte velocity. The adhesion was quantified under ischaemic and non-ischaemic experimental conditions. Under non-ischaemic conditions, the adhesion is quantified in the area of small venules, under ischaemic conditions (10 min circulation stop) the adhesion is quantified in small arterioles. The results of the control experiments are given relative to 100%. 0.1 mg/kg i.v. is in each case chosen as the test dose, the results are decreases in % of the control.

The subject of data set [3] is anaesthetized Wistar rats. The data set can be described thus: Blood pressure in anaesthetized Wistar rats after i.v. administration (carotid catheter). It is filed as in vivo, rat. As for the experimental part:
(§1) The blood pressure neutrality is determined in the following models, which are typical for dihydropyridines: in SH rats after p.o. administration by measurement in the tail artery (Riva Rocci method) and in anaesthetized Wistar rats after i.v. administration (via a catheter inserted in the carotid artery). Blood-neutral compounds are designated as those which reduce the blood pressure by at most 20% of the starting value in both test models at the dose indicated. The difference between the therapeutic dose and the blood pressure action occurring is at least a factor of 10, as a rule a factor of ≥30, in particular ≥100.

In data set [4] the test system is SH rats. The data set can be described thus: Blood pressure in SH rats after p.o. administration (tail artery, Riva Rocci). It counts as in vivo, rat. As for the experimental part: as §1
The subject of data set [5] is erythrocytes. The data set can be described thus: Antihaemolytic action, calcium-laden erythrocytes under high shearing stress. It counts as cell-based. The following applies: Erythrocyte; reduction of haemoglobin release from calcium-laden erythrocytes; read-out: ED50 of the antihaemolytic action. From the text: Test b) detects the antihaemolytic action of the substances (ED50, mol/l). In this test, calcium-laden erythrocytes are forced through small pores under high shearing stresses, so that haemoglobin is released as a result of their haemolysis and measured. The reduction in haemoglobin release is the measured quantity.
Normal erythrocytes become haemolytic under high shearing stresses. The haemolysis of calcium-laden cells is particularly pronounced. This measure of mechanical stability is used for substance characterization. The measured quantity is the concentration of free haemoglobin in the medium.

Data set [6] deals with erythrocytes. In words: Calcium permeability of erythrocytes (45Ca) after ATPase blockade by Na ortho-vanadate. It counts as cell-based. Particulars: Erythrocyte; inhibition of calcium influx (45Ca); Na ortho-vanadate 0.75 mM; read-out: ED50 of the inhibition. As for the experimental part:
Test a) measures the calcium permeability (^45 Ca) by blockade of the ATPases by Na ortho-vanadate. As a result, calcium can accumulate in the erythrocytes. A consequence is a reduced flexibility. ED50 values (mol/l) for the inhibition of calcium influx are given for test a).
After blockade of the membrane-immobilized ATPases by Na ortho-vanadate (0.75 mM), the calcium permeability is measured (^45 Ca method). Accumulation of calcium reduces the flexibility of the erythrocytes.

For `CCOC(=O)C1=C(C)N(C)C(C)=C(C(=O)OCC)C1c1ccc(F)cc1` [Example 1, Diethyl 1,2,6-trimethyl-4-(4-fluorophenyl)-1,4-dihydropyridine-3,5-dicarboxylate], the EC50 in data set [1] stood at 5 µM.

Consider `COC(=O)C1=C(C)N(C2CC2)C(C)=C(C(=O)OC)C1c1ccc(C(F)(F)F)cc1` [Example 18, dimethyl 1-cyclopropyl-2,6-dimethyl-4-(4-trifluoromethylphenyl)-1,4-dihydro-pyridine-3,5-dicarboxylate], for which, in data set [2], the “Leukocyte adhesion, Ischaemic, control = 100%” value is on record as 32% and the “Leukocyte adhesion, Non-ischaemic, control = 100%” value came to 54%. The “Dose at which a blood pressure reduction occurs, i.v.” value in data set [3] is > 10 mg/kg. The “Dose at which a blood pressure reduction occurs, p.o.” value in data set [4] is on record as > 30 mg/kg.

As to `COC(=O)C1=C(C)N(C)C(C)=C(C(=O)OC)C1c1cccc(F)c1` [Example 2, Dimethyl 4-(3-fluorophenyl)-1,2,6-trimethyl-1,4-dihydropyridine-3,5-dicarboxylate], the EC50 in data set [5] was 100 nM.

`COC(=O)C1=C(C)N(C)C(C)=C(C(=O)OC)C1c1ccc(Cl)c(C(F)(F)F)c1` [Example 26, dimethyl 1,2,6-trimethyl-4-(4-chloro-3-trifluoromethylphenyl)-1,4-dihydro-pyridine-3,5-dicarboxylate]: the EC50 in data set [5] turned out to be 30 nM; in data set [1], 5 µM.

Turning to `CCOC(=O)C1=C(C)N(C2CC2)C(C)=C(C(=O)OCC)C1c1ccc(C(F)(F)F)cc1` [Example 19, diethyl 1-cyclopropyl-2,6-dimethyl-4-(4-trifluoromethylphenyl)-1,4-dihydro-pyridine-3,5-dicarboxylate], in data set [2], the “Leukocyte adhesion, Ischaemic, control = 100%” value was found to be 34% and the “Leukocyte adhesion, Non-ischaemic, control = 100%” value came out at 61%. Also, the “Dose at which a blood pressure reduction occurs, i.v.” value in data set [3] is listed as > 10 mg/kg. In data set [4], the “Dose at which a blood pressure reduction occurs, p.o.” value was > 100 mg/kg.

On to `CCCCOC(=O)C1=C(C)N(C)C(C)=C(C(=O)OCCCC)C1c1ccc([N+](=O)[O-])cc1` [Example 6, dibutyl 1,2,6-trimethyl-4-(4-nitrophenyl)-1,4-dihydropyridine-3,5-dicarboxylate], for which, in data set [2], the “Leukocyte adhesion, Ischaemic, control = 100%” value is on record as 56% and the “Leukocyte adhesion, Non-ischaemic, control = 100%” value came to 50%. The “Dose at which a blood pressure reduction occurs, i.v.” value in data set [3] is listed as > 10 mg/kg. The “Dose at which a blood pressure reduction occurs, p.o.” value in data set [4] is > 30 mg/kg.

Regarding `COC(=O)C1=C(C)N(C)C(C)=C(C(=O)OC(C)C(C)C)C1c1ccc(C(F)(F)F)cc1` (centres unmarked) [Example 9, methyl 1,2-dimethylpropyl 1,2,6-trimethyl-4-(4-trifluoromethylphenyl)-1,4-dihydro-pyridine-3,5-dicarboxylate], in data set [2], the “Leukocyte adhesion, Ischaemic, control = 100%” value came out at 36% and the “Leukocyte adhesion, Non-ischaemic, control = 100%” value is 70%. The “Dose at which a blood pressure reduction occurs, i.v.” value in data set [3] is > 10 mg/kg. Further, the “Dose at which a blood pressure reduction occurs, p.o.” value in data set [4] is > 30 mg/kg.

Consider `COC(=O)C1=C(C)N(C)C(C)=C(C(=O)OC)C1c1ccc([N+](=O)[O-])c(O)c1` [Example 28, dimethyl 1,2,6-trimethyl-4-(3-hydroxy-4-nitrophenyl)-1,4-dihydro-pyridine-3,5-dicarboxylate], for which the EC50 in data set [1] is 5 µM.

For `CCCOC(=O)C1=C(C)N(C)C(C)=C(C(=O)OCCC)C1c1ccc(C#N)cc1` [Example 15, dipropyl 1,2,6-trimethyl-4-(4-cyanophenyl)-1,4-dihydropyridine-3,5-dicarboxylate], the EC50 in data set [5] was determined as 5000 nM.

As for `COC(=O)C1=C(C)N(C)C(C)=C(C(=O)OC)C1c1ccc(C(F)(F)F)cc1` [Example 3, Dimethyl 1,2,6-trimethyl-4-(4-trifluoromethylphenyl)-1,4-dihydro-pyridine-3,5-dicarboxylate], in data set [2], the “Leukocyte adhesion, Ischaemic, control = 100%” value came to 31% and the “Leukocyte adhesion, Non-ischaemic, control = 100%” value is on record as 63%. Further, the IC50 in data set [6] was 5 µM. Further, the “Dose at which a blood pressure reduction occurs, i.v.” value in data set [3] was > 10 mg/kg. The EC50 in data set [1] was 5 µM. Also, the “Dose at which a blood pressure reduction occurs, p.o.” value in data set [4] is listed as > 30 mg/kg.

As to `COC(=O)C1=C(C)N(C)C(C)=C(C(=O)OC)C1c1ccc(Br)cc1` [Example 13, dimethyl 1,2,6-trimethyl-4-(4-bromophenyl)-1,4-dihydropyridine-3,5-dicarboxylate], the IC50 in data set [6] is 5 µM. For the same compound, the EC50 in data set [5] came to 500 nM.

For `CCOC(=O)C1=C(C)N(C)C(C)=C(C(=O)OCC)C1c1ccc(C)c([N+](=O)[O-])c1` [Example 22, diethyl 1,2,6-trimethyl-4-(4-methyl-3-nitrophenyl)-1,4-dihydro-pyridine-3,5-dicarboxylate], in data set [5], the EC50 worked out at 500 nM.

With `COC(=O)C1=C(C)N(C)C(C)=C(C(=O)OC)C1c1ccc(C)c([N+](=O)[O-])c1` [Example 21, dimethyl 1,2,6-trimethyl-4-(4-methyl-3-nitrophenyl)-1,4-dihydro-pyridine-3,5-dicarboxylate], the IC50 in data set [6] was 5 µM. In addition, the EC50 in data set [5] worked out at 500 nM.

In the case of `COC(=O)C1=C(C)N(C)C(C)=C(C(=O)OC)C1c1ccc(C)c(C(F)(F)F)c1` [Example 27, dimethyl 1,2,6-trimethyl-4-(4-methyl-3-trifluoromethylphenyl)-1,4-dihydro-pyridine-3,5-dicarboxylate], the IC50 in data set [6] is 1 µM. For the same compound, the EC50 in data set [5] amounted to 50 nM.
